Read-outs that look alike come from different tables or passages of the source.
How the values were obtained:
MOLM-13 = assay: Cell growth inhibition, 4-day proliferation assay, MOLM-13; format: cell-based; details: Homo sapiens
Procedure: (§1) The effect of representative Compounds of the Disclosure on cell viability was determined in a 4-day proliferation assay. Cells were maintained in the appropriate culture medium with 100/0 FBS at 37° C. and an atmosphere of 5% CO2. All the cell lines were used within three months of thawing fresh vials.
(§2) In general, cells were seeded in 96-well flat bottom (Corning COSTAR, Corning, N.Y., cat #3595) or white opaque cell culture plates (BD Falcon, cat #353296) at a density of 3,000-10,000 cells/well in 75 μl of culture medium. Compounds were serially diluted in the appropriate medium, and 75 μl of the diluted compounds were added to the appropriate wells of the cell plate. After the addition of compounds, the cells were incubated at 37° C. in an atmosphere of 5% CO2 for 4 days. Cell viability was determined using the CellTiter-Glo® Luminescent Cell Viability Assay Kit (Promega, Madison, Wis.) for leukemia cells and WST (2-(2-methoxy-4-nitrophenyl)-3-(4-nitrophenyl)-5-(2,4-disulfophenyl)-2H-tetrazolium, monosodium salt) Cell Counting-8 Kit (Dojindo Molecular Technologies, Inc., Rockville, Md.) for adherent cells according to the manufacturers' instructions.
(§3) For WST assay (adherent cells), WST-8 reagent was added to each well at a final concentration of 10% (v/v), and then the plates were incubated at 37° C. for 1-2 hours for color development. The absorbance was measured at 450 nm using a SPECTRAmax PLUS plate reader (Molecular Devices, Sunnyvale, Calif.). The readings were normalized to the DMSO-treated cells and the half maximal inhibitory concentration (IC50) was calculated by nonlinear regression (four parameters sigmoid fitted with variable slope, least squares fit, and no constraint) analysis using the GraphPad Prism 5 software (GraphPad Software, La Jolla, Calif.).
(§4) For CellTiter-Glo assay (suspension cells), 100 μl of CellTiter-Glo® Reagent was added to each well, and then the plates were incubated at room temperature for 10-20 minutes. The luminescent signal was measured using a Tecan Infinite M1000 multimode microplate reader (Tecan, Morrisville, N.C.). The readings were normalized to the DMSO-treated cells and the IC50 was calculated by nonlinear regression (four parameters sigmoid fitted with variable slope, least squares fit, and no constraint) analysis using the GraphPad Prism 5 software. See US 2014/0256706.
(§5) For a number of representative compounds in Table 5, their IC50 values in cell growth inhibition activity in the RS4;11 and MOLM-13 human leukemia cell lines and the MDA-MB-231 breast cancer cell line were evaluated using the WST-8 assay described in EXAMPLE 7, with the data shown in Table 7.

MDA-MB-231 = assay: Cell growth inhibition, 4-day proliferation assay, MDA-MB-231; format: cell-based; details: Homo sapiens
Procedure: as §1, §2, §3, §4, §5

recombinant BRD4 BD2 = biological target: T1, recombinant BRD4 BD2 (Homo sapiens, UniProt O60885); assay: Competitive fluorescence-polarization (FP) binding assay, BRD4 BD2
T1 construct: for recombinant BRD4 BD1 and BRD4 BD2 proteins
Procedure: Fluorescence Polarization (FP) competitive binding studies were carried out using a FAM labeled fluorescent probe, see, e.g., Cpd. No. 350 of US 2014/0256706, to determine binding affinities of representative Compounds of the Disclosure for recombinant BRD4 BD1 and BRD4 BD2 proteins. Equilibrium dissociation constants (Kd) values of the fluorescent probe to BRD4 BD1 and BD2 proteins were determined from protein saturation experiments by monitoring the total fluorescence polarization of mixtures composed with the fluorescent probe at a fixed concentration and proteins with increasing concentrations up to full saturation. Serial dilutions of testing proteins were mixed with the fluorescent probe to a final volume of 200 μl in the assay buffer (100 mM phosphate buffer, pH=6.5, 0.01% Triton X-100 (Sigma, 282103) being added right before assays). Final fluorescent probe concentration was 1.5 nM for both proteins. Plates were incubated at room temperature for 30 minutes with gentle shaking to assure equilibrium. FP values in millipolarization units (mP) were measured using the Infinite M-1000 plate reader (Tecan U.S., Research Triangle Park, N.C.) in Microfluor 1 96-well, black, round-bottom plates (Thermo Scientific, Waltham, Mass.) at an excitation wavelength of 485 nm and an emission wavelength of 530 nm. Kd values of the fluorescent probe, which were calculated by fitting the sigmoidal dose-dependent FP increases as a function of protein concentrations using Graphpad Prism 6.0 software (Graphpad Software, San Diego, Calif.), are 5.5 and 3.0 nM to BDR4 BD1 and 2, respectively.
The IC50 and Ki values of compounds were determined in a competitive binding experiment. See US 2014/0256706. Mixtures of 10 μl of the tested compounds in assay buffer with 40% Ethylene Glycol and 190 μl of preincubated protein/probe complex solution in the assay buffer (100 mM potassium phosphate, pH 6.5, 0.01% Triton X-100) were added into assay plates which were incubated at room temperature for 30 minutes with gentle shaking. Final concentrations of proteins were 10 and 6 nM in assays for BRD4 BD1 and BD2, respectively. Final probe concentration is 1.5 nM in both assays. Negative controls containing protein/probe complex only (equivalent to 0% inhibition), and positive controls containing only free probes (equivalent to 100% inhibition), were included in each assay plate. FP values were measured as described above. IC50 values were determined by nonlinear regression fitting of the competition curves. Instead of being calculated from IC50 values as described before. Ki values of competitive inhibitors were obtained directly by nonlinear regression fitting as well, based upon the Kd values of the probe to different proteins, and concentrations of the proteins and probes in the competitive assays (US 2014/0256706; Wang, FEBS Lett. 360:111 (1995); Zhang et al., Analytical Biochemistry, 331:138 (2004)).
Representative compounds in Table 5 were evaluated for their binding affinities to BRD4 BD1 and BD2 proteins using the Competitive Fluorescence-Polarization (FP) Assays described in Example 6, with the data included in Table 6.

[1] = MOLM-13, WST-8 assay, Table 7, read-out: Cell growth inhibition (IC50 (nM)) MOLM-13
[2] = MDA-MB-231, WST-8 assay, Table 7, read-out: Cell growth inhibition (IC50 (nM)) MDA-MB-231
[3] = MOLM-13, 96 h, read-out: Cell IC50 (nM) MOLM13
[4] = MDA-MB-231, 96 h, read-out: Cell IC50 (nM) MDA-MB-231

Work on Cc1c(C#Cc2cnn(C)c2)sc2c1C(c1ccc(Cl)cc1)=N[C@@H](CC(=O)N1CCN(C(=O)OC(C)(C)C)CC1)c1nnc(C)n1-2 [Compound 160, tert-butyl (S)-4-(2-(4-(4-chlorophenyl)-3,9-dimethyl-2-((1-methyl-1H-pyrazol-4-yl)ethynyl)-6H-thieno[3,2-f][1,2,4]triazolo[4,3-a][1,4]diazepin-6-yl)acetyl)piperazine-1-carboxylate] yielded an IC50 (MOLM-13; [1]) of 8.5 nM and an IC50 (MDA-MB-231; [2]) of 108 nM.

Compound Cc1c(C#Cc2cnn(C)c2)sc2c1C(c1ccc(Cl)cc1)=N[C@@H](CC(=O)N1CCNCC1)c1nnc(C)n1-2 [Compound 161, (S)-2-(4-(4-chlorophenyl)-3,9-dimethyl-2-((1-methyl-1H-pyrazol-4-yl)ethynyl)-6H-thieno[3,2-f][1,2,4]triazolo[4,3-a][1,4]diazepin-6-yl)-1-(piperazin-1-yl)ethan-1-one] has an IC50 (MOLM-13; [1]) of 10.9 nM and an IC50 (MDA-MB-231; [2]) of 76.2 nM.

In the case of Cc1c(C#Cc2cnn(C)c2)sc2c1C(c1ccc(Cl)cc1)=N[C@@H](CC(=O)N1CCN(C)CC1)c1nnc(C)n1-2 [Compound 162, (S)-2-(4-(4-chlorophenyl)-3,9-dimethyl-2-((1-methyl-1H-pyrazol-4-yl)ethynyl)-6H-thieno[3,2-f][1,2,4]triazolo[4,3-a][1,4]diazepin-6-yl)-1-(4-methylpiperazin-1-yl)ethan-1-one], the IC50 (MOLM-13; [1]) is reported as 19.2 nM and the IC50 (MDA-MB-231; [2]) is reported as 109 ± 38 nM.

For Cc1c(C#Cc2cncn2C)sc2c1C(c1ccc(Cl)cc1)=N[C@@H](CC(=O)N1CCN(C(=O)OC(C)(C)C)CC1)c1nnc(C)n1-2 [Compound 163, tert-butyl (S)-4-(2-(4-(4-chlorophenyl)-3,9-dimethyl-2-((1-methyl-1H-imidazol-5-yl)ethynyl)-6H-thieno[3,2-f][1,2,4]triazolo[4,3-a][1,4]diazepin-6-yl)acetyl)piperazine-1-carboxylate], the IC50 (MOLM-13; [1]) was 33.1 nM and the IC50 (MDA-MB-231; [2]) was 362 nM.

Work on Cc1c(C#Cc2cncn2C)sc2c1C(c1ccc(Cl)cc1)=N[C@@H](CC(=O)N1CCNCC1)c1nnc(C)n1-2 [Compound 164] yielded an IC50 (MOLM-13; [1]) of 85.4 nM and an IC50 (MDA-MB-231; [2]) of 304 nM.

Cc1c(C#Cc2ccccn2)sc2c1C(c1ccc(Cl)cc1)=NCc1nnc(C)n1-2 [Cpd. No. 1, 4-(4-chlorophenyl)-3,9-dimethyl-2-(pyridin-2-ylethynyl)-6H-thieno[3,2-f][1,2,4]triazolo[4,3-a][1,4]diazepine] gave an IC50 (recombinant BRD4 BD2) of 0.178 µM, an IC50 (MOLM-13; [3]) of 206 ± 21.9 nM and an IC50 (MDA-MB-231; [4]) of 272 nM.

Compound Cc1c(C#Cc2cn[nH]c2)sc2c1C(c1ccc(Cl)cc1)=NCc1nnc(C)n1-2 [Cpd. No. 21, 2-((1H-pyrazol-4-yl)ethynyl)-4-(4-chlorophenyl)-3,9-dimethyl-6H-thieno[3,2-f][1,2,4]triazolo[4,3-a][1,4]diazepine] has an IC50 (recombinant BRD4 BD2) of 0.0374 µM.

Compound Cc1c(C#Cc2cn[nH]c2)sc2c1C(c1ccc(Cl)cc1)=N[C@@H](C)c1nnc(C)n1-2 [Cpd. No. 22, (S)-2-((1H-pyrazol-4-yl)ethynyl)-4-(4-chlorophenyl)-3,6,9-trimethyl-6H-thieno[3,2-f][1,2,4]triazolo[4,3-a][1,4]diazepine] has an IC50 (recombinant BRD4 BD2) of 0.00768 µM.

Cc1c(C#CC2CCCC2)sc2c1C(c1ccc(Cl)cc1)=N[C@@H](C)c1nnc(C)n1-2 [Cpd. No. 29, (S)-4-(4-chlorophenyl)-2-(cyclopentylethynyl)-3,6,9-trimethyl-6H-thieno[3,2-f][1,2,4]triazolo[4,3-a][1,4]diazepine] showed an IC50 (recombinant BRD4 BD2) of 0.0103 µM.

With Cc1c(C#Cc2cncn2C)sc2c1C(c1ccc(Cl)cc1)=N[C@@H](C)c1nnc(C)n1-2 [Cpd. No. 30, (S)-4-(4-chlorophenyl)-3,6,9-trimethyl-2-((1-methyl-1H-imidazol-5-yl)ethynyl)-6H-thieno[3,2-f][1,2,4]triazolo[4,3-a][1,4]diazepine] the IC50 (recombinant BRD4 BD2) was 0.0135 µM.

Work on Cc1c(C#Cc2ccc(F)cn2)sc2c1C(c1ccc(Cl)cc1)=N[C@@H](C)c1nnc(C)n1-2 [Cpd. No. 31, (S)-4-(4-chlorophenyl)-2-((5-fluoropyridin-2-yl)ethynyl)-3,6,9-trimethyl-6H-thieno[3,2-f][1,2,4]triazolo[4,3-a][1,4]diazepine] yielded an IC50 (recombinant BRD4 BD2) of 0.0195 µM.

Cc1c(C#Cc2ccc(N)cn2)sc2c1C(c1ccc(Cl)cc1)=N[C@@H](C)c1nnc(C)n1-2 [Cpd. No. 32, (S)-6-((4-(4-chlorophenyl)-3,6,9-trimethyl-6H-thieno[3,2-f][1,2,4]triazolo[4,3-a][1,4]diazepin-2-yl)ethynyl)pyridin-3-amine] gave an IC50 (recombinant BRD4 BD2) of 0.00987 µM.

Cc1c(C#CCN2CCN(C)CC2)sc2c1C(c1ccc(Cl)cc1)=N[C@@H](C)c1nnc(C)n1-2 [Cpd. No. 33, (S)-4-(4-chlorophenyl)-3,6,9-trimethyl-2-(3-(4-methylpiperazin-1-yl)prop-1-yn-1-yl)-6H-thieno[3,2-f][1,2,4]triazolo[4,3-a][1,4]diazepine] showed an IC50 (recombinant BRD4 BD2) of 0.0422 µM.

In the case of Cc1c(C#Cc2cncs2)sc2c1C(c1ccc(Cl)cc1)=N[C@@H](C)c1nnc(C)n1-2 [Cpd. No. 34, (S)-4-(4-chlorophenyl)-3,6,9-trimethyl-2-(thiazol-5-ylethynyl)-6H-thieno[3,2-f][1,2,4]triazolo[4,3-a][1,4]diazepine], the IC50 (recombinant BRD4 BD2) is reported as 0.0218 µM.

With Cc1c(C#Cc2nccs2)sc2c1C(c1ccc(Cl)cc1)=N[C@@H](C)c1nnc(C)n1-2 [Cpd. No. 35, (S)-4-(4-chlorophenyl)-3,6,9-trimethyl-2-(thiazol-2-ylethynyl)-6H-thieno[3,2-f][1,2,4]triazolo[4,3-a][1,4]diazepine] the IC50 (recombinant BRD4 BD2) was 0.022 µM.

Work on COc1ccc(C#Cc2sc3c(c2C)C(c2ccc(Cl)cc2)=N[C@@H](C)c2nnc(C)n2-3)nc1 [Cpd. No. 36, (S)-4-(4-chlorophenyl)-2-((5-methoxypyridin-2-yl)ethynyl)-3,6,9-trimethyl-6H-thieno[3,2-f][1,2,4]triazolo[4,3-a][1,4]diazepine] yielded an IC50 (recombinant BRD4 BD2) of 0.0117 µM.

Cc1c(C#Cc2ccc(O)cn2)sc2c1C(c1ccc(Cl)cc1)=N[C@@H](C)c1nnc(C)n1-2 [Cpd. No. 42] showed an IC50 (MOLM-13; [3]) of 10.6 nM and an IC50 (MDA-MB-231; [4]) of 7.9 nM.

From patent US11046709B2, “Fused 1,4-diazepines as BET bromodomain inhibitors” (THE REGENTS OF THE UNIVERSITY OF MICHIGAN, priority 2017, dated 2021)
